# Reference: the supplement of paper PMC10307832
# Compound: CC(C)CCN1c2nc(Nc3cc(F)c(O)c(F)c3)ncc2N(C)C(=O)C1C [BI-D1870] + CC1(C)CCC(c2ccc(Cl)cc2)=C(CN2CCN(c3ccc(C(=O)NS(=O)(=O)c4ccc(N[C@H](CCN5CCOCC5)CSc5ccccc5)c(S(=O)(=O)C(F)(F)F)c4)cc3)CC2)C1 [Navitoclax] (partner 0.5 µM)
# Experiment: relative viability (nuclei count vs DMSO), 5 days (fraction); higher = more cells survive
# Details: first compound 4 µM
# In short: (§1)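 Relative viability was taken as the ratio of nuclei in treated wells to nuclei in vehicle wells. Lung cancer cell lines in 1536-well plates received compounds by pin tool one day after seeding, either one drug alone or a fixed anchor-drug dose plus five library-drug doses (not always all listed) in √10 steps. Nuclei were counted on 4× images after 5 days of treatment, and values are medians of duplicate plates.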
row,Cell Line,relative viability
1,NCI-H1944,1.06
2,NCI-H1975,0.54
3,RERF-LC-KJ,0.888
4,PC-3 [JPC-3],0.734

# Compound: O=c1ncccn1[C@@H]1O[C@H](CO)[C@@H](O)[C@H]1O [Zebularine] + CC1(C)CCC(c2ccc(Cl)cc2)=C(CN2CCN(c3ccc(C(=O)NS(=O)(=O)c4ccc(N[C@H](CCN5CCOCC5)CSc5ccccc5)c(S(=O)(=O)C(F)(F)F)c4)cc3)CC2)C1 [Navitoclax] (partner 0.5 µM)
# Experiment: as above
# Details: first compound 1 µM
# In short: as §1
row,Cell Line,relative viability
1,CAL-12T,1.53
2,NCI-H1651,1.22
3,EPLC-272H,1.45
4,NCI-H2228,1.46
5,NCI-H1355,0.955
6,NCI-H3122,1.06
7,NCI-H1437,1.23
8,NCI-H1755,1.14
9,NCI-H2023,1.14
10,HCC-15,0.775
11,NCI-H1793,0.403
12,PC-14,1.07
13,EKVX,1.03
14,LC-2-ad,0.409
15,NCI-H1944,1.11
16,NCI-H1975,1.13
17,PC-3 [JPC-3],0.751

# Same assay, conditions: first compound 3.162 µM
row,Cell Line,relative viability
1,CAL-12T,1.32
2,NCI-H1651,1.03
3,NCI-H2228,0.843
4,NCI-H1355,0.894
5,NCI-H3122,1.02
6,NCI-H1437,1.16
7,NCI-H1755,1.04
8,NCI-H2023,1.04
9,HCC-15,0.72
10,NCI-H1793,0.448
11,PC-14,1.06
12,EKVX,0.755
13,LC-2-ad,0.422
14,NCI-H1944,0.984
15,NCI-H1975,1.08
16,RERF-LC-KJ,1.08
17,PC-3 [JPC-3],0.749

# Same assay, conditions: first compound 10 µM
row,Cell Line,relative viability
1,NCI-H2228,0.655
2,NCI-H1355,0.898
3,NCI-H3122,0.943
4,NCI-H1755,0.773
5,NCI-H2023,0.851
6,HCC-15,0.507
7,NCI-H1793,0.318
8,PC-14,0.346
9,LC-2-ad,0.291
10,NCI-H1944,0.705
11,NCI-H1975,0.64
12,RERF-LC-KJ,0.507
13,PC-3 [JPC-3],0.603

# Same assay, conditions: first compound 31.62 µM
row,Cell Line,relative viability
1,CAL-12T,1.28
2,NCI-H1651,0.971
3,EPLC-272H,1.26
4,NCI-H2228,0.722
5,NCI-H1355,0.456
6,NCI-H3122,1.08
7,NCI-H1437,0.99
8,NCI-H1755,1.01
9,NCI-H2023,0.924
10,HCC-15,0.781
11,NCI-H1793,0.285
12,PC-14,0.113
13,EKVX,0.947
14,LC-2-ad,0.33
15,NCI-H1944,0.9
16,NCI-H1975,0.575
17,RERF-LC-KJ,0.939
18,PC-3 [JPC-3],0.748

# Same assay, conditions: first compound 100 µM
row,Cell Line,relative viability
1,CAL-12T,0.918
2,NCI-H1651,0.506
3,EPLC-272H,0.639
4,NCI-H2228,0.191
5,NCI-H1355,0.306
6,NCI-H3122,1.02
7,NCI-H1437,0.364
8,NCI-H1755,0.444
9,NCI-H2023,0.247
10,HCC-15,0.469
11,NCI-H1793,0.208
12,PC-14,0.129
13,EKVX,1.03
14,LC-2-ad,0.137
15,NCI-H1944,0.669
16,NCI-H1975,0.229
17,RERF-LC-KJ,0.968
18,PC-3 [JPC-3],0.583

# Compound: O=c1ncccn1[C@@H]1O[C@H](CO)[C@@H](O)[C@H]1O [Zebularine] + Nc1nc2[nH]cc(CCc3ccc(C(=O)N[C@@H](CCC(=O)O)C(=O)O)cc3)c2c(=O)[nH]1 [Pemetrexed] (partner 0.2 µM)
# Experiment: as above
# Details: first compound 1 µM
# In short: as §1
row,Cell Line,relative viability
1,CAL-12T,1.43
2,NCI-H1651,0.631
3,EPLC-272H,0.36
4,NCI-H2228,0.403
5,NCI-H1355,1.04
6,NCI-H3122,0.189
7,NCI-H1437,0.322
8,NCI-H1755,0.365
9,NCI-H2023,0.232
10,HCC-15,0.23
11,NCI-H1793,1.08
12,PC-14,0.136
13,EKVX,0.396
14,LC-2-ad,0.276
15,NCI-H1944,0.696
16,NCI-H1975,0.323
17,RERF-LC-KJ,0.447
18,PC-3 [JPC-3],1.43

# Same assay, conditions: first compound 3.162 µM
row,Cell Line,relative viability
1,CAL-12T,1.1
2,NCI-H1651,0.556
3,EPLC-272H,0.331
4,NCI-H2228,0.293
5,NCI-H1355,1.02
6,NCI-H3122,0.183
7,NCI-H1437,0.335
8,NCI-H1755,0.37
9,NCI-H2023,0.2
10,HCC-15,0.213
11,NCI-H1793,0.92
12,PC-14,0.139
13,EKVX,0.431
14,LC-2-ad,0.289
15,NCI-H1944,0.604
16,NCI-H1975,0.283
17,RERF-LC-KJ,0.505
18,PC-3 [JPC-3],1.06

# Same assay, conditions: first compound 10 µM
row,Cell Line,relative viability
1,CAL-12T,0.914
2,NCI-H1651,0.542
3,NCI-H1355,0.802
4,NCI-H3122,0.175
5,NCI-H1437,0.276
6,NCI-H1755,0.438
7,NCI-H2023,0.138
8,HCC-15,0.201
9,NCI-H1793,0.292
10,PC-14,0.0749
11,LC-2-ad,0.27
12,NCI-H1944,0.614
13,NCI-H1975,0.235
14,RERF-LC-KJ,0.415
15,PC-3 [JPC-3],1.07

# Same assay, conditions: first compound 31.62 µM
row,Cell Line,relative viability
1,CAL-12T,1.18
2,NCI-H1651,0.563
3,EPLC-272H,0.342
4,NCI-H2228,0.264
5,NCI-H1355,0.623
6,NCI-H3122,0.225
7,NCI-H1437,0.295
8,NCI-H1755,0.638
9,NCI-H2023,0.18
10,HCC-15,0.219
11,NCI-H1793,0.347
12,PC-14,0.0697
13,EKVX,0.433
14,LC-2-ad,0.255
15,NCI-H1944,0.573
16,NCI-H1975,0.206
17,RERF-LC-KJ,0.507
18,PC-3 [JPC-3],0.755

# Same assay, conditions: first compound 100 µM
row,Cell Line,relative viability
1,CAL-12T,0.47
2,NCI-H1651,0.347
3,EPLC-272H,0.264
4,NCI-H2228,0.152
5,NCI-H1355,0.303
6,NCI-H3122,0.225
7,NCI-H1437,0.275
8,NCI-H1755,0.397
9,NCI-H2023,0.149
10,HCC-15,0.186
11,NCI-H1793,0.287
12,PC-14,0.0552
13,EKVX,0.397
14,LC-2-ad,0.259
15,NCI-H1944,0.357
16,NCI-H1975,0.2
17,RERF-LC-KJ,0.443
18,PC-3 [JPC-3],0.813
